Activity calls are given as the source filed them.
How the values were obtained:
[1] = biological target: Cytochrome P450 3A4 (Homo sapiens, UniProt P08684);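 note: CYP3A4 tested as one member of a cytochrome P450 panel screen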
[2] = test system: Streptococcus sp. 'group A'; experiment: growth inhibition of control SK(-) GAS strain, dose response, counter-screen for streptokinase expression inhibitor project, luminescence, kanamycin, BacTiterGlo, confirmation (AID 1900); assay type: functional, organism-based
[3] = test system: Streptococcus; experiment: Group A Streptococcus viability loss, dose response, counter-screen for streptokinase expression inhibitor project, luminescence, BacTiterGlo (AID 1915); assay type: functional, organism-based;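 note: potency for reduction of bacterial viability or growth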
[4] = biological target: Cytochrome P450 2D6 (Homo sapiens, UniProt P10635);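 note: CYP2D6 member of a cytochrome P450 panel assay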
[5] = biological target: T1, Streptokinase A (Streptococcus pyogenes serotype M1, UniProt P10520); experiment: S. pyogenes streptokinase expression inhibitors, potency, dose response, plasminogen activation absorbance, OD405 (AID 1914); assay type: functional, Streptococcus pyogenes M1 GAS;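 note: secreted streptokinase activity via plasminogen activation per viability signal from cell pellet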
T1 sequence (P10520 whole entry): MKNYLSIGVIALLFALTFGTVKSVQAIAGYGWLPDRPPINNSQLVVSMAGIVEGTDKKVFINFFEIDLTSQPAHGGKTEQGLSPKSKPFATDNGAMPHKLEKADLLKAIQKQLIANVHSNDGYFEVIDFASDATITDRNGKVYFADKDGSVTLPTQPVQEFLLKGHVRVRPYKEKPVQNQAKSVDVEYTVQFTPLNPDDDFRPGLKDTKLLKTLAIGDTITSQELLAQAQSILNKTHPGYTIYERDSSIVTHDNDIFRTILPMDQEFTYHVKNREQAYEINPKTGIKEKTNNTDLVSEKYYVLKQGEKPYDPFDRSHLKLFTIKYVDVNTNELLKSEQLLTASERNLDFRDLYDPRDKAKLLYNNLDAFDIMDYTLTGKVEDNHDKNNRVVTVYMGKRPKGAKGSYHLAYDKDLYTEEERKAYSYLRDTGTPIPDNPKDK

[6] = biological target: T2, Cytochrome P450 1A2 (Homo sapiens, UniProt P05177);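 note: PubChem cytochrome P450 panel assay, CYP1A2 panel member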
T2 sequence (P05177 whole entry): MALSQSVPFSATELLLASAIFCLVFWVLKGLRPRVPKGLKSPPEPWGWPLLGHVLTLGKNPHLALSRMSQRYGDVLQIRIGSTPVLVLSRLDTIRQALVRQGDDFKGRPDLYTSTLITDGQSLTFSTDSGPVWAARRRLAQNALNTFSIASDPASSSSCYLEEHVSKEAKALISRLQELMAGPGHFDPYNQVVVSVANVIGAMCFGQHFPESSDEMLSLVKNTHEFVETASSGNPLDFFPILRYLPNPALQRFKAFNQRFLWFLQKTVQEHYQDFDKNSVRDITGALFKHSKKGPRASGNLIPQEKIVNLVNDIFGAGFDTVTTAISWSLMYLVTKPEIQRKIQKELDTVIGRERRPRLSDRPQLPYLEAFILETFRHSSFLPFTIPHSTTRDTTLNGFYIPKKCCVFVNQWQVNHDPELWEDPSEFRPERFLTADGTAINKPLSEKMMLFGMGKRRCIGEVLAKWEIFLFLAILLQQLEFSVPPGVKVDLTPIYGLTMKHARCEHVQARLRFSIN

[7] = biological target: T3, Cytochrome P450 2C9 (Homo sapiens, UniProt P11712)
[8] = biological target: T3, Cytochrome P450 2C9; remark: listed apart in the source
[9] = biological target: Cytochrome P450 2C19 (Homo sapiens, UniProt P33261); experiment: Cytochrome panel assay with activity outcomes. Panel member name: p450-cyp2c19 Compounds with AC50 equal or less than 10 uM are considered active; assay type: functional; details: read-out: AC50
[10] = C. albicans growth with fluconazole, confirmation, fluorescence, retest (AID 2467); assay type: functional, cell-based
[11] = NIH-3T3 fibroblast cytotoxicity, dose response, cytotoxicity control, cell-based, fluorescence, Alamar Blue, secondary assay (AID 2327); assay type: functional;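 note: NIH-3T3 mouse fibroblasts cultured with fluconazole at 8 µg/mL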
[12] = biological target: Peroxisome proliferator-activated receptor gamma/Nuclear receptor coactivator 3 (Homo sapiens, UniProt P37231); experiment: TR-FRET dose response biochemical High Throughput Screening assay for agonists of the steroid receptor coactivator 3 (SRC-3) recruitment by the peroxisome proliferator-activated receptor gamma (PPAR gamma): non-selective agonists. [Related pubchem assays: 1301 (Confirmation screen.), 1048 (Primary screen.)]; assay type: functional
[13] = biological target: Peroxisome proliferator-activated receptor gamma/Nuclear receptor coactivator 2 (Homo sapiens, UniProt P37231); experiment: (§1) TR-FRET dose response biochemical High Throughput Screening assay for agonists of the steroid receptor coactivator 2 (SRC-2) recruitment by the peroxisome proliferator-activated receptor gamma (PPAR gamma): non-selective agonists. [Related pubchem assays: 1297, 1032 ]; assay type: functional
[14] = biological target: Peroxisome proliferator-activated receptor gamma/Nuclear receptor coactivator 1 (Homo sapiens, UniProt P37231); experiment: as §1, with “1 (SRC-1)” for “2 (SRC-2)”, “assays (depositor defined):AID1300, AID1808, AID504735, AID631]” for “assays: 1297, 1032 ]”; assay type: protein assay
Peroxisome proliferator-activated receptor gamma/Nuclear receptor coactivator 1, sequence (P37231 whole entry): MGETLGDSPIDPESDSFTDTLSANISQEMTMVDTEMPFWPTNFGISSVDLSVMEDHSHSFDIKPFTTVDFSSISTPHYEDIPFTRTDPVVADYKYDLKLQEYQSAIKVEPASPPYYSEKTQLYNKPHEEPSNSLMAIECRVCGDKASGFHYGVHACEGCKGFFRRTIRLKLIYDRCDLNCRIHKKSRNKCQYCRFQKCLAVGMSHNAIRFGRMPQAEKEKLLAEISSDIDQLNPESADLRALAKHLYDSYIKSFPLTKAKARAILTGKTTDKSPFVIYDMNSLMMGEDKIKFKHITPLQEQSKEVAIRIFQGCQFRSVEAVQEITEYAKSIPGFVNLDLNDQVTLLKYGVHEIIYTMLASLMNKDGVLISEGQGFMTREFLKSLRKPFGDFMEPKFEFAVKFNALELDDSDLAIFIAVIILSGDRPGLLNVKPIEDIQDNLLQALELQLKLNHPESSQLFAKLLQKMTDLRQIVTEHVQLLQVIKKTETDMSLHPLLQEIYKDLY
Peroxisome proliferator-activated receptor gamma/Nuclear receptor coactivator 1, sequence (Q15788 whole entry, further chain): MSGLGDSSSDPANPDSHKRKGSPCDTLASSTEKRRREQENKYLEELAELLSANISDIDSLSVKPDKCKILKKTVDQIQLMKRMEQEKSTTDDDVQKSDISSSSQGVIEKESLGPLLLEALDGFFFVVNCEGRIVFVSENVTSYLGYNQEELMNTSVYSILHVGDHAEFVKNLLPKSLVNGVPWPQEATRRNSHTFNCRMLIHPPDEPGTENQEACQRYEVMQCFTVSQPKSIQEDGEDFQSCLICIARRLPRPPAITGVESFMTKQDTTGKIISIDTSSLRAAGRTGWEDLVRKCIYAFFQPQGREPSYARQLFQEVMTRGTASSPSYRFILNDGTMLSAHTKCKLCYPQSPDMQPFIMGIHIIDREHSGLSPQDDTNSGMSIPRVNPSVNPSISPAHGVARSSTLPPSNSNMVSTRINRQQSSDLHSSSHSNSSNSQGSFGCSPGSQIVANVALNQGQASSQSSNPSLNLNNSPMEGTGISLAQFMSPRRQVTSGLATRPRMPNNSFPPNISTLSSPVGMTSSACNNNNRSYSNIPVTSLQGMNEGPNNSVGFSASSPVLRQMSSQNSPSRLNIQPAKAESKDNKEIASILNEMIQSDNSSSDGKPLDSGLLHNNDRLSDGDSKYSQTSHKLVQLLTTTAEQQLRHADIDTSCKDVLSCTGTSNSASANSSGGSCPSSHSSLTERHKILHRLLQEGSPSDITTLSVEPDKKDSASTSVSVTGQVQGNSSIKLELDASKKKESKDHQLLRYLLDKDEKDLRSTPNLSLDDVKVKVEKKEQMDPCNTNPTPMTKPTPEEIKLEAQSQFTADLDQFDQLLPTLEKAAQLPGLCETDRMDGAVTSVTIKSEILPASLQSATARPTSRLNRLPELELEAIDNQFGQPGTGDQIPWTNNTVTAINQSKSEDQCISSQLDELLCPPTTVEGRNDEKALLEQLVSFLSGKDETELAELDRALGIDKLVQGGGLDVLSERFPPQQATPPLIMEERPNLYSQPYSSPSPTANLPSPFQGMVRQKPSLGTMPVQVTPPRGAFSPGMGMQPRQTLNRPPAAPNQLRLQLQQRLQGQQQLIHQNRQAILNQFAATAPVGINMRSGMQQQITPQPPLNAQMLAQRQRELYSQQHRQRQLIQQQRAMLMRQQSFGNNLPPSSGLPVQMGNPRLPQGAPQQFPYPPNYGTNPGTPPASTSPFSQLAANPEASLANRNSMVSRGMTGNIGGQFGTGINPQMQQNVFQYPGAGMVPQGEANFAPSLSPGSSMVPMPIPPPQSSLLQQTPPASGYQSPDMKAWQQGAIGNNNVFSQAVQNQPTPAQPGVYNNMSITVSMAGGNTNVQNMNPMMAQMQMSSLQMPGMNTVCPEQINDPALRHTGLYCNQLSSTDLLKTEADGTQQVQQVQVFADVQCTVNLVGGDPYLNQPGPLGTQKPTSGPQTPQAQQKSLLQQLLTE

Cytochrome P450 3A4, sequence (P08684 whole entry): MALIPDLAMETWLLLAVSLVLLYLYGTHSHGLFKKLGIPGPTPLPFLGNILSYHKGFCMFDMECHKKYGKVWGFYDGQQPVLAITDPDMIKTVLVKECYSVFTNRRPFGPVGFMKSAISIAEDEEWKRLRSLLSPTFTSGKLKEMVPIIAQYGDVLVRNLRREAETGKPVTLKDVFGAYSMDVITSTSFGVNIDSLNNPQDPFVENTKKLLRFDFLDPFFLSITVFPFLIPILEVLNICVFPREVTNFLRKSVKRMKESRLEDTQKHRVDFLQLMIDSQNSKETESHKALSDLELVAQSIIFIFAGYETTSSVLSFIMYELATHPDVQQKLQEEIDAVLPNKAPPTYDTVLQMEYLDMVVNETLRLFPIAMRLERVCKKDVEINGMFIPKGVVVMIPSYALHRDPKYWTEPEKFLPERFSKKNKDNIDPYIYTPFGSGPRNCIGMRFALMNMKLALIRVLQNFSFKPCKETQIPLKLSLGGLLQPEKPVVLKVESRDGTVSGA
T3 sequence (P11712 whole entry): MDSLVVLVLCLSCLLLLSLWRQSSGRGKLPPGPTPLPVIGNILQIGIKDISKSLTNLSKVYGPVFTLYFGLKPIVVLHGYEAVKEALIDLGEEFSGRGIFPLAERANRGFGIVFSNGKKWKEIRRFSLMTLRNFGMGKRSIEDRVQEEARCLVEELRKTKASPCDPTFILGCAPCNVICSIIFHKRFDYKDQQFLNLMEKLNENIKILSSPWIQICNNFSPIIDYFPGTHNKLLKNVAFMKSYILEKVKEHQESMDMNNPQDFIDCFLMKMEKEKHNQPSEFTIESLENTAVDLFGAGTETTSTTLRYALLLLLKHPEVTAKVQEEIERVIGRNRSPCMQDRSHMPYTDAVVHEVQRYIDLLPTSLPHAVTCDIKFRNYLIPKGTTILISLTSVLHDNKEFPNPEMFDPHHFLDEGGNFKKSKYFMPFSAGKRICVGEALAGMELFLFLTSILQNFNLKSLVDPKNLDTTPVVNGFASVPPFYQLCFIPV
Peroxisome proliferator-activated receptor gamma/Nuclear receptor coactivator 3, sequence (P37231 whole entry): as the sequence (P37231 whole entry) above
Peroxisome proliferator-activated receptor gamma/Nuclear receptor coactivator 3, sequence (Q9Y6Q9 whole entry, further chain): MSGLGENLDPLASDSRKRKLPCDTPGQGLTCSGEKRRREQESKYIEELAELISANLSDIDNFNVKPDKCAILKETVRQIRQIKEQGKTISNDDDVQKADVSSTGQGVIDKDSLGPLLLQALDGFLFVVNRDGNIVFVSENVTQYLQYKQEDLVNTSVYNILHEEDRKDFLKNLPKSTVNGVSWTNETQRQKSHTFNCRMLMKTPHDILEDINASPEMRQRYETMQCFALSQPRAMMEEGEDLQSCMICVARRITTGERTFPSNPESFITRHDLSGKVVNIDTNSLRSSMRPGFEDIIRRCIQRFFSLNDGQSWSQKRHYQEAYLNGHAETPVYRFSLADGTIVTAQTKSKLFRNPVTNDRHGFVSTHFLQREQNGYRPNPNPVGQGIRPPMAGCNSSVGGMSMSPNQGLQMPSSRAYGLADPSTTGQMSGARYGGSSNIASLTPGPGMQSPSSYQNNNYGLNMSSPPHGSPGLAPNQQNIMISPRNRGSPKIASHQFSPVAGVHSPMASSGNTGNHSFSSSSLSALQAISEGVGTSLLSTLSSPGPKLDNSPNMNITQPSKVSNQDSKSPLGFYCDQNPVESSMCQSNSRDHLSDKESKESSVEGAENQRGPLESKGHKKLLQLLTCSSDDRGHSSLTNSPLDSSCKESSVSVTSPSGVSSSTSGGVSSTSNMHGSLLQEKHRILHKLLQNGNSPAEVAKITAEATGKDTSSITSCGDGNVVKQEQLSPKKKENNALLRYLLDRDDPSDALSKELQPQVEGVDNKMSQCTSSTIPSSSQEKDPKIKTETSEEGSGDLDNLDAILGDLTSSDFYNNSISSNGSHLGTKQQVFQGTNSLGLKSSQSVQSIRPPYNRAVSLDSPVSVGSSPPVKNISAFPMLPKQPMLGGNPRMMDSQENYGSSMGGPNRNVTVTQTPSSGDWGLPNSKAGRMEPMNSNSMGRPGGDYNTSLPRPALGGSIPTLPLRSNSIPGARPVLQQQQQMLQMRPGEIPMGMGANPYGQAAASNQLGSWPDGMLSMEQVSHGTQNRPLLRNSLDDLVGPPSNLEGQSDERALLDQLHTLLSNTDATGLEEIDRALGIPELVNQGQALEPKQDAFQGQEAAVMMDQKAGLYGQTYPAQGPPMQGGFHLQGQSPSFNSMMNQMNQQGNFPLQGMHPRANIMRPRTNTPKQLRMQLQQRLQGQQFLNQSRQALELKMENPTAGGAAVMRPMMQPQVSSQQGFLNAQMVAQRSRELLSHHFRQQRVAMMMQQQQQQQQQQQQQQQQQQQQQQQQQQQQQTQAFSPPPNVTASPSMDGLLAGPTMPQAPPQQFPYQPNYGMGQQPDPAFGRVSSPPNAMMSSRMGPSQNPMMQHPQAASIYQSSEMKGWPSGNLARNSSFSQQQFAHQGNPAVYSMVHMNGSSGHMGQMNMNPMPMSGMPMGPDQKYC

Cc1nn(-c2ccccc2)c(C)c1/C=N/NC(=O)c1cc(-c2ccc(Cl)s2)[nH]n1
AC50 [1]: inconclusive
EC50 [2]: 10.8 µM (active)
EC50 [3]: 9.32 µM (active)
AC50 [4]: 25.1 µM (inconclusive)
EC50 [5]: > 150 µM (not active)

O=C(c1cccc(F)c1)N1CCC2(CC1)CCN(C(c1ccccc1)c1ccccc1)CC2
AC50 [1]: inconclusive
AC50 [6]: 10 µM (inconclusive)
AC50 [7]: 39.8 µM (inconclusive)

CCN(CCCNC(=O)CC(C(=O)N1CCc2ccccc21)n1ccnc1)c1ccccc1 (stereo unspecified)
AC50 [8]: inconclusive

O=C(NCc1ccc(Cl)cc1)c1ccc(Cl)cc1[N+](=O)[O-]
AC50 [8]: inconclusive
AC50 [6]: 2.82 µM (inconclusive)

COc1ccc(N2CCN(CCNC(=O)C3CCN(S(=O)(=O)c4cccs4)CC3)CC2)cc1
AC50 [1]: inconclusive
AC50 [9]: 28.2 µM (inconclusive)
AC50 [7]: 20 µM (inconclusive)

O=c1c(-c2ccccc2)nc2cnc(Oc3ccccc3)nc2n1C1CC1
AC50 [1]: inconclusive
AC50 [9]: 25.1 µM (inconclusive)

Cn1c(=O)n(CC#N)c2ccccc21
AC50 [8]: inconclusive
EC50 [10]: 4.1 µM (active)
AC50 [6]: 12.6 µM (inconclusive)
EC50 [11]: > 160 µM (inconclusive)

CN(CCCNC(=O)CSc1cc(=O)n(C)c2cc(Cl)ccc12)Cc1ccccc1
EC50 [12]: > 79.4 µM (not active)
EC50 [13]: > 79.4 µM (not active)
EC50 [14]: > 79.4 µM (inactive)

CSc1cnn(-c2ccccc2)c(=O)c1SC
EC50 [12]: > 79.4 µM (not active)
EC50 [13]: 1.75 µM (active)
EC50 [14]: 1.97 µM (active)

— ChEMBL document CHEMBL1201862, “PubChem BioAssay data set” (2004)
